Experiments:
[1] = system: anaesthetised, hyperventilated Domperidone-treated lamb; experiment: Periodic breathing induced by transient hyperventilation in the anaesthetised Domperidone-treated lamb (model of elevated loop gain); type: in vivo; conditions: for effect on average value of loop gain across the epoch / effect on epoch duration / effect on number of cycles in epochs of periodic breathing following hyperventilation / number of cycles of ventilation and apnea in the epoch of periodic breathing / duration of the epoch of periodic breathing / average value of loop gain across the epoch of periodic breathing: 5 mg/kg i.v.; for effect on average value of loop gain across the epoch / effect on epoch duration / effect on number of cycles in epochs of periodic breathing following hyperventilation: before vs after drug, Retigabine lambs 1-3, Flupirtine lamb 4; for number of cycles of ventilation and apnea in the epoch of periodic breathing / duration of the epoch of periodic breathing / average value of loop gain across the epoch of periodic breathing: single lamb; for number of cycles of ventilation and apnea in the epoch of periodic breathing / duration of the epoch of periodic breathing: about 1 hour after drug; for number of cycles of ventilation and apnea in the epoch of periodic breathing: same lamb before drug: 30 (Retigabine lamb), 24 (Flupirtine lamb); for duration of the epoch of periodic breathing: same lamb before drug: 6 minutes (Retigabine lamb), 320 seconds (Flupirtine lamb); for average value of loop gain across the epoch of periodic breathing: duty ratio method, same lamb before drug: 1.71 (Retigabine lamb), 1.51 (Flupirtine lamb)
Description: To determine the effects of the KCNQ channel openers Retigabine and Flupirtine on loop gain and periodic breathing in the anaesthetised, hyperventilated Domperidone-treated lamb.
This animal model provides a robust preparation to test the effects of candidate drugs for the treatment of disordered breathing associated with increased peripheral chemosensitivity and elevated loop gain.
Young lambs (Merino/Border-Leicester cross, 14-18 kg) were instrumented surgically and maintained through the experimental protocol according to the method described by Edwards et al. (2008). Briefly, a non-occlusive catheter was placed in the left jugular vein for the induction of anaesthesia using a loading dose of ketamine hydrochloride (5 mg/kg) followed by alpha-chloralose (80 mg/kg as a starting bolus, then as a continuous infusion at 20 mg/kg/hr. Supplemental doses of alpha-chloralose were administered as needed to maintain adequate anaesthesia. A glucose-saline solution was infused through the same catheter to maintain fluid levels (5% glucose in 0.9% saline at 4 ml/kg/hr). A tracheal tube was inserted and connected to a dual intermittent mechanical ventilator (IMV)/high frequency oscillatory ventilator (Humming2; BMO-20H) used in the IMV mode. Use of a 4-way Hans Rudolf valve enabled the lamb to be ventilated artificially or to breathe spontaneously from a circuit through which a flow of gas was maintained at 45 L/min, or from the room air. Measurements of respiratory flow, tidal volume and end-expired gases were made on the tracheal line. Respiratory flow was measured using a Hans Rudolph (3500A) pneumotachograph that was linear up to 35 l/min, in conjunction with a Gaeltec 8T-2 differential pressure transducer connected to a carrier amplifier (Hewlett Packard 8805B) and thence to an HP-8815A electronic integrator to determine tidal volume. Non-occlusive catheters were placed in the right jugular vein and a carotid artery for the intravenous administration of drugs, the sampling of venous and arterial blood gases and the monitoring of blood pressure. Arterial blood pressure was measured using a Micron MP-15 blood pressure transducer connected to a Hewlett-Packard 8805B carrier amplifier. A rectal probe was used to monitor body temperature, which was maintained within the range of 40.0±1.0° C. using an overhead radiant heater. Arterial oxygen saturation was measured continuously using a Nellcor pulse oximeter (Model N-200E) with the probe placed in the trans-mandibular position in such a way that the optical path included the soft tissues of the jaw but excluded the tongue.
Domperidone (0.5 mg/kg in 30 ml 0.1% lactic acid), Flupirtine (as Flupirtine maleate, 5 mg/kg in 30 ml distilled water) and Retigabine (5 mg/kg in 30 ml distilled water) were each administered over a period of 5 minutes via the jugular vein catheter.
Lambs breathed room air (atmospheric) throughout the experimental protocol. Domperidone was administered at the commencement of the experimental protocol. […] Epochs of periodic breathing were induced by switching the tracheal tube to the ventilator circuit and hyperventilating the lamb with air for at least 5 minutes to reduce end tidal CO2 to a level that produced apnea when the ventilator was switched off. […] Typically, an extended epoch of periodic breathing followed the post-hyperventilation apnea. Once the ventilation parameters for achieving a post-hyperventilation apnea as described above were established for a particular animal, the baseline ventilatory response to hyperventilation was determined by performing two standardised hyperventilation procedures 10-15 minutes apart. The test drug (Flupirtine or Retigabine) was then administered and, approximately 1 hour later, another two hyperventilation procedures were performed 10-15 minutes apart.
Minute ventilation was calculated breath-by-breath using the breath duration determined from the respiratory flow trace and the tidal volume signal from the integrator. […]

[2] = system: young lambs; conditions: cited from earlier work

CCOC(=O)Nc1ccc(NCc2ccc(F)cc2)nc1N [Flupirtine]
effect on average value of loop gain across the epoch [1]: reduced | effect on epoch duration [1]: reduced | effect on number of cycles in epochs of periodic breathing following hyperventilation [1]: significantly reduced | number of cycles of ventilation and apnea in the epoch of periodic breathing [1]: 9 cycles | duration of the epoch of periodic breathing [1]: 130 s | average value of loop gain across the epoch of periodic breathing [1]: 1.16

CCOC(=O)Nc1ccc(NCc2ccc(F)cc2)cc1N [Retigabine]
effect on average value of loop gain across the epoch [1]: reduced | effect on epoch duration [1]: reduced | effect on number of cycles in epochs of periodic breathing following hyperventilation [1]: significantly reduced | number of cycles of ventilation and apnea in the epoch of periodic breathing [1]: 6 cycles | duration of the epoch of periodic breathing [1]: 115 s | average value of loop gain across the epoch of periodic breathing [1]: 1.24

O=c1[nH]c2ccccc2n1CCCN1CCC(n2c(=O)[nH]c3cc(Cl)ccc32)CC1 [Domperidone]
duration of blocking effect ([2]; 0.5 mg/kg dose to a lamb, previous research (Kressin et al. 1986)): at least three hours | effect on loop gain of the respiratory control system ([2]; young lambs, Edwards et al. (2008)): increases | epochs of periodic breathing on hyperventilation ([1]; Domperidone 0.5 mg/kg alone, 30 minutes or more after administration): reliably elicited epochs of periodic breathing | typical duration of epochs of periodic breathing ([1]; Domperidone 0.5 mg/kg alone, before test drug): 2 to 5 min
